Test results taken from paper PMC7816196, “Antitubercular 2-Pyrazolylpyrimidinones: Structure–Activity Relationship and Mode-of-Action Studies” (Journal of Medicinal Chemistry, 2021).
Converted amounts (≈) assume the structure as drawn. Where two headings read alike, the source gives them in different places.

What was measured:
[1] = Kinetic aqueous solubility at pH 7.4; assay type: physicochemical
Procedure: 3) In vitro ADME - assays
The kinetic solubility assay was p erfo rmed using a miniaturised shake flask method. 10 mM stock solutions of each of the test compounds were used to prepare calibration standards (10-220 µM) in DMSO. The same 10 mM stock soluti ons were accurately dispensed in duplicat e into 96-well plates and the DMSO dried down (MiVac GeneVac, 90 min, 37 °C). Thereafter, the samples were reconstituted (200 µM) in phosphate buffered saline (pH 7. 4) and shaken (20 hours,25 °C). The solutions were centrifuged, and the supernatant was an alysed by means of HPLC-DAD (Agilent 1200 Rapid Resolution HPLC with a diode array detector). Best fit calibration curves were constructed using the calibration standards, which were used to determine the aqueous samples’ solubility.4
The metabolic stability assay was performed in dup licate in a 96-well micro t itre plate. The test compounds (0.1 µM) were incubated individually in mouse, rat and pooled human liver microsomes (final protei n concentration of 0.4 m g/mL; XenoTech, Lenexa, KS), suspended in 0.1M phosphate buffer (pH 7.4) for predetermined time points, in the presence and abs ence of the cofactor NADPH (1 mM). Reactions were quenched by adding 300 µL of ice cold acetonitrile containing internal standard (carbamazepine, 0.0236 µg/mL). The samples were centrifuged and test in the supernatant were an alysed by means of LC-MS/MS ((Agilent Rapid Resolution HPLC, AB SCIEX 4500 MS). The rel ative loss of parent compound over time w as monitored and plots (concentration vs. time) were prepared per compound to determine the first order rate constant for compound depletion. This was in turn used to calculate h alf-life, in vitro intrinsic clearance and in vivo hepatic extraction ratio. Metabolite search es were not conducted during the met abolic stability assay.5

[2] = test system: Mtb H37Rv; assay: MIC against Mtb H37Rv, Alamar Blue broth microdilution; assay type: cell-based, Mycobacterium tuberculosis
[3] = test system: WT H37Rv; assay: microbe, parasite or virus in culture; assay type: cell-based, M. tuberculosis; conditions: Mycobacterium tuberculosis
[4] = test system: mmpL3-TetON; assay: microbe, parasite or virus in culture; assay type: cell-based, M. tuberculosis; conditions: for MIC / MIC50: Mycobacterium tuberculosis
[5] = Mouse pharmacokinetics, i.v. and oral
[6] = in vivo; conditions: male, C57/BL6, mouse
[7] = phosphate buffered saline, pH 7.4, aqueous (kinetic) solubility at pH 7.4, read-out: Solubility
[8] = Mycobacterium tuberculosis, H37RV, 168 h
[9] = Mycobacterium tuberculosis, H37RV, supplement csv, medium not stated
[10] = male, C57/BL6, mouse, whole blood, iv, 2 mg/kg
[11] = male, C57/BL6, mouse, whole blood, po, 20 mg/kg

## Cc1cc(NCCN(C)C)n(-c2nc(C(F)(F)F)cc(=O)[nH]2)n1 [Compound 36, 2-(5-((2-(Dimethylamino)ethyl)amino)-3-methyl-1H-pyrazol-1-yl)-6-(trifluoromethyl)pyrimidin-4(3H)-one]
[1]; [7]
  solubility at 20 h: ≥ 200 µM

## Cc1cc(Nc2ccc(C#N)cc2)n(-c2nc(C(F)(F)F)cc(=O)[nH]2)n1 [Compound 42, 4-((3-Methyl-1-(6-oxo-4-(trifluoromethyl)-1,6-dihydropyrimidin-2-yl)-1H-pyrazol-5-yl)amino)benzonitrile]
[2]; [8]
  MIC: 9 µM (≈ 3.24 µg/mL)
[2]; [9]
  MIC: 9 µM (≈ 3.24 µg/mL)

## Cc1cc(C)n(-c2nc(C(=O)Nc3ccc(F)cc3)cc(=O)[nH]2)n1 [Compound 26, 2-(3,5-Dimethyl-1H-pyrazol-1-yl)-N-(4-fluorophenyl)-6-oxo-1,6-dihydropyrimidine-4-carboxamide]
[1]; [7]
  solubility at 20 h: ≥ 200 µM

## CCNc1cc(C)nn1-c1nc(C(F)(F)F)cc(=O)[nH]1 [Compound 34, 2-(5-(Ethylamino)-3-methyl-1H-pyrazol-1-yl)-6-(trifluoromethyl)pyrimidin-4(3H)-one]
[2]; [9]
  MIC: 6 µM (≈ 1.72 µg/mL)

## Cn1ccnc1-c1nc(-c2ccccc2)cc(=O)[nH]1 [Compound 18, 2-(1-Methyl-1H-imidazole-2-yl)-6-phenylpyrimidin-4(1H)-one]
[1]; [7]
  solubility at 20 h: ≥ 200 µM

## Cc1cc(Nc2ccc(N3CCOCC3)cn2)n(-c2nc(C(F)(F)F)cc(=O)[nH]2)n1 [Compound 46, 2-(3-Methyl-5-((5-morpholinopyridin-2-yl)amino)-1H-pyrazol-1-yl)-6-(trifluoromethyl)pyrimidin-4(3H)-one]
[2]; [8]
  MIC: 2 µM (≈ 0.843 µg/mL)
[2]; [9]
  MIC: 2 µM (≈ 0.843 µg/mL)

## Cc1nn(-c2nc(C(F)(F)F)cc(=O)[nH]2)c(C)c1N1CCOCC1 [Compound 50, 2-(3,5-Dimethyl-4-morpholino-1H-pyrazol-1-yl)-6-(trifluoromethyl)pyrimidin-4(3H)-one]
[2]; [9]
  MIC: 6 µM (≈ 2.06 µg/mL)

## CC(C)=CCC/C(C)=C/CNCCNC1C2CC3CC(C2)CC1C3 (stereo not drawn) [SQ109, reference compound]
[3]; experiment: Follow-Up
  MIC: 0.98 µM (≈ 0.324 µg/mL)
  MIC50: 0.54 µM (≈ 0.179 µg/mL)
[3]; experiment: Initial
  MIC: 0.99 µM (≈ 0.327 µg/mL)
  MIC50: 0.39 µM (≈ 0.129 µg/mL)
[4]; experiment: Follow-Up
  MIC: 0.19 µM (≈ 0.0628 µg/mL)
  MIC50: 0.1 µM (≈ 0.0331 µg/mL)
[4]; experiment: Initial
  MIC: 0.27 µM (≈ 0.0893 µg/mL)
  MIC50: 0.071 µM (≈ 0.0235 µg/mL)

## Cc1cc(CN(C)C)nn1-c1nc(C(F)(F)F)cc(=O)[nH]1 [Compound 52, 2-(3-((Dimethylamino)methyl)-5-methyl-1H-pyrazol-1-yl)-6-(trifluoromethyl)pyrimidin-4(3H)-one]
[1]; [7]
  solubility at 20 h: ≥ 200 µM

## Cc1cc(NC2CCOCC2)n(-c2nc(C(F)(F)F)cc(=O)[nH]2)n1 [Compound 39, 2-(3-Methyl-5-((tetrahydro-2H-pyran-4-yl)amino)-1H-pyrazol-1-yl)-6-(trifluoromethyl)pyrimidin-4(3H)-one]
[2]; [8]
  MIC: 1.5 to 2 µM (≈ 0.515 to 0.687 µg/mL)
[2]; [9]
  MIC: 1 µM (≈ 0.343 µg/mL)

## Cc1cc(Nc2ccc(C(=O)N(C)C)cc2)n(-c2nc(C(F)(F)F)cc(=O)[nH]2)n1 [Compound 43, N,N-Dimethyl-4-((3-Methyl-1-(6-oxo-4-(trifluoromethyl)-1,6-dihydropyrimidin-2-yl)-1H-pyrazol-5-yl)amino)benzamide]
[1]; [7]
  solubility at 20 h: ≥ 200 µM

## CCc1cc(C)nn1-c1nc(C(F)(F)F)cc(=O)[nH]1 [Compound 30, 2-(5-Ethyl-3-methyl-1H-pyrazol-1-yl)-6-(trifluoromethyl)pyrimidin-4(3H)-one]
[1]; [7]
  solubility at 20 h: ≥ 200 µM

## 2-(3-Methyl-5-oxo-2,5-dihydro-1H-pyrazol-1-yl)-6-phenylpyrimidin-4(1H)-one [Compound 13]
[1]; aqueous (kinetic) solubility at pH 7.4, read-out: Solubility
  solubility at 20 h: 190 µM
[2]
  MIC: >125 µM
[2]; supplement csv, medium not stated
  MIC: >125 µM

## Cc1cc(C)n(-c2nc(-c3ccccc3)cc(=O)n2C)n1 [Compound 4, 2-(3,5-Dimethyl-1H-pyrazol-1-yl)-3-methyl-6-phenylpyrimidin-4(3H)-one]
[1]; [7]
  solubility at 20 h: ≥ 200 µM

## CC[C@@H](CO)NCCN[C@@H](CC)CO [Ethambutol, reference compound]
[3]; experiment: Follow-Up
  MIC: 3.8 µM (≈ 0.776 µg/mL)
  MIC50: 1.4 µM (≈ 0.286 µg/mL)
[3]; experiment: Initial
  MIC: 2.4 µM (≈ 0.49 µg/mL)
  MIC50: 0.98 µM (≈ 0.2 µg/mL)
[4]; experiment: Follow-Up
  MIC: 4.9 µM (≈ 1 µg/mL)
  MIC50: 1.9 µM (≈ 0.388 µg/mL)
[4]; experiment: Initial
  MIC: 1.6 µM (≈ 0.327 µg/mL)
  MIC50: 1.3 µM (≈ 0.266 µg/mL)

## Cc1cc(NCCO)n(-c2nc(C(F)(F)F)cc(=O)[nH]2)n1 [Compound 37, 2-(5-((2-Hydroxyethyl)amino)-3-methyl-1H-pyrazol-1-yl)-6-(trifluoromethyl)pyrimidin-4(3H)-one]
[1]; [7]
  solubility at 20 h: ≥ 200 µM

## Cc1cc(Nc2ccc(F)cc2F)n(-c2nc(C(F)(F)F)cc(=O)[nH]2)n1 [Compound 41, 2-(5-((2,4-Difluorophenyl)amino)-3-methyl-1H-pyrazol-1-yl)-6-(trifluoromethyl)pyrimidin-4(3H)-one]
[2]; [8]
  MIC: 0.2 µM (≈ 0.0743 µg/mL)

## Cc1cc(-c2ccccc2)n(-c2nc(C(F)(F)F)cc(=O)[nH]2)n1 [Compound 32, 2-(3-Methyl-5-phenyl-1H-pyrazol-1-yl)-6-(trifluoromethyl)pyrimidin-4(3H)-one]
[1]; [7]
  solubility at 20 h: ≥ 200 µM

## Cc1cc(N)n(-c2nc(C(F)(F)F)cc(=O)[nH]2)n1 [Compound 33, 2-(5-Amino-3-methyl-1H-pyrazol-1-yl)-6-(trifluoromethyl)pyrimidin-4(3H)-one]
[1]; [7]
  solubility at 20 h: ≥ 200 µM

## Cc1nn(-c2nc(C(F)(F)F)cc(=O)[nH]2)c(C)c1Br [Compound 48, 2-(4-Bromo-3,5-dimethyl-1H-pyrazol-1-yl)-6-(trifluoromethyl)pyrimidin-4(3H)-one]
[1]; [7]
  solubility at 20 h: ≥ 200 µM

## COCCNc1cc(C)nn1-c1nc(C(F)(F)F)cc(=O)[nH]1 [Compound 38, 2-(5-((2-Methoxyethyl)amino)-3-methyl-1H-pyrazol-1-yl)-6-(trifluoromethyl)pyrimidin-4(3H)-one]
[3]; experiment: Follow-Up
  MIC: 1.5 µM (≈ 0.476 µg/mL)
  MIC50: 0.87 µM (≈ 0.276 µg/mL)
[3]; experiment: Initial
  MIC: 1.1 µM (≈ 0.349 µg/mL)
  MIC50: 0.46 µM (≈ 0.146 µg/mL)
[1]; [7]
  solubility at 20 h: ≥ 200 µM
[2]; [8]
  MIC: 1.5 to 2 µM (≈ 0.476 to 0.635 µg/mL)
[4]
  change in MIC on transcriptional silencing of mmpL3: no significant change
[4]; experiment: Follow-Up
  MIC50: 0.78 µM (≈ 0.247 µg/mL)
[4]; experiment: Initial
  MIC: 1.1 µM (≈ 0.349 µg/mL)
  MIC50: 0.47 µM (≈ 0.149 µg/mL)

## Cc1cc(C)n(-c2nc(-c3ccc(F)cc3)cc(=O)[nH]2)n1 [Compound 19, 2-(3,5-Dimethyl-1H-pyrazol-1-yl)-6-(4-fluorophenyl)pyrimidin-4(3H)-one]
[2]; [9]
  MIC: 1 µM (≈ 0.284 µg/mL)

## Cc1cc(Nc2ccncc2)n(-c2nc(C(F)(F)F)cc(=O)[nH]2)n1 [Compound 44, 2-(3-Methyl-5-(pyridin-4-ylamino)-1H-pyrazol-1-yl)-6-(trifluoromethyl)pyrimidin-4(3H)-one]
[1]; phosphate buffered saline, pH 7.4, supplement csv, pH 7.4, read-out: SolubilitypH 7.4
  solubility at 20 h: 22 µM (≈ 7.4 µg/mL)

## Cc1cc(C)n(-c2nc(-c3cccnc3)cc(=O)[nH]2)n1 [Compound 21, 2-(3,5-Dimethyl-1H-pyrazol-1-yl)-6-(pyridin-3-yl)pyrimidin-4(3H)-one]
[1]; [7]
  solubility at 20 h: ≥ 200 µM

## COc1cc(-c2ccccc2)nc(-n2nc(C)cc2C)n1 [Compound 3, 2-(3,5-Dimethyl-1H-pyrazol-1-yl)-4-methoxy-6-phenylpyrimidine]
[1]; [7]
  solubility at 20 h: ≥ 200 µM

## Cc1cc(Nc2ccc(F)cc2)n(-c2nc(C(F)(F)F)cc(=O)[nH]2)n1 [Compound 40, 2-(5-((4-Fluorophenyl)amino)-3-methyl-1H-pyrazol-1-yl)-6-(trifluoromethyl)pyrimidin-4(3H)-one]
[3]; experiment: Follow-Up
  MIC: 0.51 µM (≈ 0.18 µg/mL)
  MIC50: 0.4 µM (≈ 0.141 µg/mL)
[3]; experiment: Initial
  MIC: 0.54 µM (≈ 0.191 µg/mL)
  MIC50: 0.3 µM (≈ 0.106 µg/mL)
[5]; [10]
  AUC(0-inf): 256 µM·h
  CLint scaled: 34 mL/min/kg
  Cmax: 33.1 µM
  Vd: 0.1 L/kg
  clearance: 0.4 mL/min/kg
[5]; male, C57/BL6, mouse, whole blood, oral, 20 mg/kg
  bioavailability: ~40%
[5]; [11]
  AUC(0-inf): 1090 µM·h
  Cmax: 104 µM
  bioavailability: 44%
[5]; mouse, i.v. 2 mg/kg or oral 20 mg/kg
  tolerability: well tolerated
[6]; iv, 2 mg/kg
  half-life: 4 h
[6]; po, 20 mg/kg
  half-life: 6.1 h
[4]
  change in MIC on transcriptional silencing of mmpL3: no significant change
[4]; experiment: Follow-Up
  MIC: 0.56 µM (≈ 0.198 µg/mL)
  MIC50: 0.36 µM (≈ 0.127 µg/mL)
[4]; experiment: Initial
  MIC: 0.34 µM (≈ 0.12 µg/mL)
  MIC50: 0.18 µM (≈ 0.0636 µg/mL)

## Cc1cc(O)nc(-n2nc(C)cc2C)n1 [Compound 11, 2-(3,5-Dimethyl-1H-pyrazol-1-yl)-6-methylpyrimidin-4(3H)-one]
[2]; CH3 or CF3 at R1 instead of phenyl
  loss in activity: 10–15 fold
